In patent publication US20210069120A1, “COMPOSITE NANOPARTICLE, PREPARATION METHOD THEREOF AND PREPARATION METHOD OF COMPOSITE NANO PREPARATION USING THEREOF” (JINAN UNIVERSITY, priority 2018, published 2021):

Legend:
MDA-MB-231 cells [1] = assay: Apoptosis of MDA-MB-231 cells detected by flow cytometry (Annexin V-FITC/PI); type: cell-based, human
Method: After Blank PLN, PTX, PSO, I-PSO, PTX+PSO+I-PSO and (PTX+PSO+I-PSO)-PLN were used to act on the MDA-MB-231 cells respectively, a blank control without drug treatment was set at the same time. Cells were collected, an Annexin V-FITC buffer solution and a propidium iodide (PI) staining solution were added respectively, and cell apoptosis was detected by a flow cytometry, wherein green fluorescence was Annexin V-FITC, and red fluorescence was PI. Annexin V-FITC/PI double staining was dominant in late apoptotic cells and dead cells which referred to an upper right region on a flow cytometry diagram, while AnnexinV-FITC staining was dominant in early apoptotic cells which referred to a lower right region on the flow cytometry diagram. The experiment was repeated for three times.

MDA-MB-231 cells [2] = assay: MTT proliferation inhibition / toxicity on MDA-MB-231; type: cell-based, human; conditions: 48 hours, concentration range of 0.39 to 100 μmol/L
Method: 4×10^3 MDA-MB-231 cells/well were inoculated into a 96-well plate with a concentration of 100 μL/well, and cultured in a 5% CO2 cell incubator at 37° C. for 24 hours, then a supernatant was removed after 24 hours, and 200 μL of drug-containing medium was added. The final concentrations of the PTX added to the MDA-MB-231 cells were 0.0039 μmol/L, 0.0078 μmol/L, 0.0156 μmol/L, 0.03125 μmol/L, 0.0625 μmol/L, 0.125 μmol/L, 0.25 μmol/L, 0.5 μmol/L and 1 μmol/L. At the same time, a control group (the same amount of culture fluid was added) and a blank zeroing group were set up. Each well was provided with 6 multiple wells and placed in a CO2 incubator for continuous cultivation for 48 hours. […] An OD value was measured at 570 nm of an enzyme reader. […]
(§1) 4×10^3 MDA-MB-231 cells/well were inoculated into a 96-well plate with a concentration of 100 μL/well, and cultured in a 5% CO2 cell incubator at 37° C. for 24 hours, then a supernatant was removed after 24 hours, and 200 μL of drug-containing medium was added. […] An OD value was measured at 570 nm of an enzyme reader. […]
as §1

SMILES | Apoptosis rate (%) of MDA-MB-231 cells (MDA-MB-231 cells [1]) | toxicity to the MDA-MB-231 cells (cell viability) (MDA-MB-231 cells [2])
CC(=O)O[C@H]1C(=O)[C@@]2(C)[C@H]([C@H](OC(=O)c3ccccc3)[C@]3(O)C[C@H](OC(=O)[C@H](O)[C@@H](NC(=O)c4ccccc4)c4ccccc4)C(C)=C1C3(C)C)[C@]1(OC(C)=O)CO[C@@H]1C[C@@H]2O [PTX, paclitaxel] | 15.1% | 
O=c1ccc2cc3ccoc3cc2o1 [PSO, psoralen] | 13.8% | no obvious toxicity
O=c1ccc2ccc3occc3c2o1 [I-PSO, isopsoralen] | 11.5% | 
